Tests used:
stress ulcer = test: WIS: Restraint and Water Immersion Stress-Induced Ulcer Inhibition Test; type: in vivo, rat (male Crj:SD or Slc:SD); settings: for WIS: ulcer formation inhibitory rate: 100 mg/kg oral, rats, water immersion stress 7 hours; for effect (anti-ulcer tests): comparison of examples within compound group 1-1
Method: WIS: Restraint and Water Immersion Stress-Induced Ulcer Inhibition Test
The degree of inhibition of the stress ulcer formation is tested.
Male Crj:SD or Slc:SD rats (6 to 7-week-old) were fasted overnight, but allowed free access to water. Each group has 5 to 8 of these rats. The sample compound was dissolved or suspended in an aqueous solution of 0.3% sodium carboxymethylcellulose or 0.05% Tween 80 and then was orally administered (100 mg/10 ml/kg). To a control group, the vehicle was administered. 10 minutes later, the rats were placed in a stress cage and immersed to the level of xipfoid process in a water bath (21° C.) for 7 hours. At the end of the stress, the rats were sacrificed by inhalation of ether or carbon dioxide. Then, the stomach of each was removed, inflated by injecting 10 ml of 5% formalin neutral buffer solution, and immersed in 1% formalin neutral buffer solution for 30 minutes or more to be fixed. The stomach was incised along the greater curvature and then the length of each erosion in the glandular portion was determined under dissecting microscope. The sum of the length of erosions per stomach was defined as ulcer index (UI).
The effect obtained when 100 mg/kg of the sample compound had been administered was expressed as ulcer formation inhibitory rate (%) as follows: [formula] VOL, TAO: Acid Secretion Inhibition Test In Vivo i) Meaning

in vitro = settings: rabbit, gastric mucosal cells
[1] = tested on: isolated gastric fundic gland; test: CAP: Acid Secretion Inhibition Test In Vitro ([14C]-aminopyrine uptake); type: cell-based, rabbit (male Japanese White); settings: Oryctolagus cuniculus, 40 min; 10^-5 M compound, 10^-5 M histamine, rabbit isolated gastric fundic gland, 37° C., 40 minutes; read-out: CAP: acid secretion inhibitory rate
Method: With respect to the gastric juice volume (VOL) and the total acid output (TAO), the effects obtained when 100 mg/kg of the sample compound had been administered were expressed as their respective inhibitory rates (%) as follows: [formula] CAP: Acid Secretion Inhibition Test In Vitro i) Meaning
The acid secretion inhibitory activity in a cell level is studied. It can also be used for studying the mechanism of the effect.
ii-a) Preparation of isolated gastric fundus gland suspension
First, an isolated gastric fundic gland sample was prepared. […] Immediately thereafter, the stomach was removed and, after its pyloric and cardiac antrum were severed, incised along its greater curvature into two sheets. The gastric contents adhering to the mucosal surface was washed out with ice-cooled PBS (-) and then carefully washed therein. The gastric wall was spread on a cork board with its mucosal surface facing up and the feed and mucus thereon were completely removed with sterile gauze. The mucosa was separated therefrom by a spatula and then collected in ice-cooled PBS (-). After being washed twice with PBS (-), the mucosa was minced into 2-3 mm^3 pieces by scissors. These pieces were further washed twice with a nutrient solution. The nutrient solution comprises 132.4 mM of NaCl, 5.4 mM of KCl, 5 mM of Na2 HPO4.12H2 O, 1 mM of NaH2 PO4.2H2 O, 1.2 mM of MgSO4, 1 mM of CaCl2, 25 mM of HEPES, 2 mg/ml of glucose, and 1 mg/ml of BSA. Into 70 ml of the nutrient solution containing 1 mg/ml of collagenase, minced mucosal pieces were dispersed and intensely stirred in a conical flask with a stirrer at 37° C. for 40 to 60 minutes. During this period, 100% O2 was sprayed on the nutrient solution surface and the pH was appropriately measured such that it was immediately adjusted to pH 7.4, when the value was therebelow, with a base. The nutrient solution was added to the reaction solution so as to attain the total amount of about 200 ml. After being filtered through a mesh, the suspension was divisionally introduced into 50 ml centrifuge tubes and left for 15 minutes such that gastric fundic gland was deposited. The supernatant was repeatedly removed by an aspirator, dispersed in the nutrient solution, and then left such that the gastric fundic gland was washed three times. At this time, without using a pipette, the suspension was alternately introduced into two centrifuge tubes so as to effect dispersion. The number of cells was counted under microscope and adjusted to 1.6×10^6 cells/ml.
ii-b) [^14 C]-aminopyrine uptake test
Then, [^14 C]-aminopyrine uptake test was performed. After an Eppendorf tube was weighed, 10 μl (final concentration: 10^-5 M) of histamine dissolved in the above-mentioned nutrient solution, 10 μl (final concentration: 10^-5 M) of the test compound dissolved in DMSO, and 10 μl (final concentration: 0.05 μCi/ml) of [^14 C]-aminopyrine diluted with the nutrient solution were introduced therein and then 970 μl of the isolated gastric fundic gland suspension prepared above was added thereto. Subsequently, this mixture was shaken at 37° C. for 40 minutes at 125 cycles/minute. After being centrifuged for 30 minutes, 200 μl of its supernatant was collected into a mini-vial, while the rest was removed by an aspirator. The gland pellet was completely dried as the tube with its lid being opened was kept for one night in a drying oven at 80° C. and then the lid was closed and the weight was determined at room temperature. Then 100 μl of 1N KOH was added thereto and the tube with its lid being closed was treated at 60° C. for 1 to 2 hours so as to dissolve the pellet. Then, the contents thereof were transferred to a mini-vial. Into the mini-vial containing the supernatant or gland pellet, 4 ml of Atomlite™ was added and then the radioactivity was measured by a liquid scintillation counter. […]

Male Slc:ICR mice = tested on: Male Slc:ICR mice; set-up: species or system mouse (male Slc:ICR); settings: mouse, in vivo
Method: AT: Single Dose Toxicity Pretest
Male Slc:ICR mice (5-week-old) were used. Each group has 3 to 5 mice and each mouse was fasted, but allowed free access to water, for 4 to 5 hours from 9 a.m. in the test day. Then, 2,000 mg/10 ml/kg of the sample compound dissolved or suspended in an aqueous solution of 0.5% sodium carboxymethyl cellulose was orally administered thereto. To a control, only the vehicle was administered. […] The body weight was measured before and after the fasting as well as at the same time everyday. The dead animals were immediately subjected to autopsy and their organs were observed microscopically. Also, the living animals were sacrificed with ether or carbon dioxide one week after the administration and then their organs were observed microscopically.
The toxicity at the single dose of 2,000 mg/kg of the sample compound was expressed as being classified into 5 levels.
5: Mortality rate is 0%; no toxicity is found at all both in behavior and organs.
4: Mortality rate is 0%; while no toxicity is found in organs, slight toxicity is observed in behavior and body weight increase.
3: While there is a dead animal (though not all the animals are dead), no toxicity is found in organs.
2: Regardless of whether there is a dead animal or not, toxicity is found in organs.
1: All the animals are dead.

Row | Structure (SMILES) | WIS: ulcer formation inhibitory rate (stress ulcer) [%] | cytotoxicity at 4 h, 100 µM (in vitro) [%] | inhibition at 10 µM [1] [%] | also measured
1 | CC(C)=CCC/C(C)=C/COc1ccccc1C(=O)NCCN1CCOCC1 [Example 30] | 68 | – | – | –
2 | CC(C)=CCC/C(C)=C/CSc1ccccc1C(=O)NCCN1CCOCC1 [Example 33] | 49 | 5 | 100 | –
3 | CC(C)=CCC/C(C)=C/COc1ccccc1C(=O)NCCN1CCCCC1 [Example 5] | 78 | 21 | – | –
4 | COc1ccc(C(=O)NCCN2CCCCC2)c(OC/C=C(\C)CCC=C(C)C)c1 [Example 22] | 39 | 44 | – | –
5 | CCC(CC)CN1CCN(CCNC(=O)c2ccc(OC/C=C(\C)CCC=C(C)C)cc2)CC1 [Example 49] | – | – | 99.8 | –
6 | CC(C)=CCOc1cc(C(=O)NCCN2CCCCC2)cc(OCC=C(C)C)c1OCC=C(C)C [Example 19] | 57 | – | – | AT: toxicity at single dose, 5 levels (Male Slc:ICR mice): 4
7 | CC(C)=CCOc1cc(C(=O)NCCN2CCOCC2)cc(OCC=C(C)C)c1OCC=C(C)C [Example 39] | 76 | – | – | AT: toxicity at single dose, 5 levels (Male Slc:ICR mice): 4
8 | CC(C)=CCC/C(C)=C/COc1ccc(C(=O)NCCN2CCN(c3nccs3)CC2)cc1 [Example 60] | – | 7 | 100 | –
9 | CC(C)=CCC/C(C)=C/COc1ccc(C(=O)NCCN2CCN(c3ncccn3)CC2)cc1 [Example 61] | – | 3 | 100 | –
10 | CC(C)=CCC/C(C)=C/COc1cc(OC/C=C(\C)CCC=C(C)C)cc(C(=O)NCCN2CCOCC2)c1 [Example 38] | 55 | -12 | – | –
11 | COc1cccc(C(=O)NCCN2CCCCC2)c1OC/C=C(\C)CCC=C(C)C [Example 21] | 68 | 12 | – | –
12 | CC(C)=CCC/C(C)=C/COc1ccc(C(=O)NCCN2CCN(Cc3ccc(F)cc3)CC2)cc1 [Example 57] | – | – | 99.4 | –
13 | COc1ccc(OC/C=C(\C)CCC=C(C)C)c(C(=O)NCCN2CCOCC2)c1 [Example 40] | 70 | – | – | –
14 | COc1cc(C(=O)NCCN2CCCCC2)cc(OC)c1OC/C=C(\C)CCC=C(C)C [Example 26] | 72 | 17 | – | anti-ulcer effect (stress ulcer; result in words): more anti-ulcer effect
15 | CC(C)=CCC/C(C)=C/COc1ccc(C(=O)NCCN2CCN(CC(C)(C)C)CC2)cc1 [Example 48] | – | – | 100 | –
16 | CC(C)=CCC/C(C)=C/COc1ccc(C(=O)NCCN2CCCCC2)c(OC/C=C(\C)CCC=C(C)C)c1 [Example 12] | 75 | 38 | – | –
17 | CC(C)=CCOc1ccc(C(=O)NCCN2CCCCC2)c(OCC=C(C)C)c1 [Example 16] | 59 | 18 | – | –
18 | CC(C)=CCOc1cc(OCC=C(C)C)cc(C(=O)NCCN2CCCCC2)c1 [Example 18] | 40 | 33 | – | –

Row | Structure (SMILES) | WIS: ulcer formation inhibitory rate (stress ulcer) [%] | cytotoxicity at 4 h, 100 µM (in vitro) [%] | inhibition at 10 µM [1] [%] | also measured
19 | CC(C)=CCC/C(C)=C/COc1ccc(C(=O)NCCN2CCCC(C)(C)C2)cc1 [Example 9] | 67 | – | – | effect (anti-ulcer tests) (stress ulcer; result in words): a sufficient effect can be obtained
20 | CC(C)=CCC/C(C)=C/CSc1ccccc1C(=O)NCCN1CCCCC1 [Example 7] | 87 | – | – | effect (anti-ulcer tests) (stress ulcer; result in words): the effect has been maintained
21 | CCCCC(CC)CN1CCN(CCNC(=O)c2ccc(OC/C=C(\C)CCC=C(C)C)cc2)CC1 (centres unmarked) [Example 51] | – | – | 94.8 | –
22 | COc1cc(C(=O)NCCN2CCOCC2)cc(OC)c1OCC=C(C)C [Example 41] | 39 | – | – | –
23 | CCCCN1CCN(CCNC(=O)c2ccc(OC/C=C(\C)CCC=C(C)C)cc2)CC1 [Example 50] | – | – | 95.9 | –
24 | COc1ccc(N2CCN(CCNC(=O)c3ccc(OC/C=C(\C)CCC=C(C)C)cc3)CC2)cc1 [Example 53] | – | 7 | 98.7 | –
25 | CC(C)=CCC/C(C)=C/COc1ccc(C(=O)NCCN2CCN(CC(=O)NC(C)C)CC2)cc1 [Example 54] | – | – | 100 | –
26 | CC(C)=CCC/C(C)=C/COc1ccc(C(=O)NCCN2CCN(CCC(C)C)CC2)cc1 [Example 47] | – | – | 101 | –
27 | CC(C)=CCC/C(C)=C/COc1ccc(C(=O)NCCN2CCN(c3ccccc3)CC2)cc1 [Example 52] | – | 11 | 99.1 | –
28 | CCN(CCN1CCCCC1)C(=O)c1ccc(OC/C=C(\C)CCC=C(C)C)cc1 [Example 8] | 67 | 41 | 100 | effect (anti-ulcer tests) (stress ulcer; result in words): a sufficient effect can be obtained
29 | CC(C)=CCOc1ccc(C(=O)NCCN2CCCCC2)cc1 [Example 1] | 67 | 1 | – | –
30 | CC(C)=CCC/C(C)=C/COc1ccc(C(=O)NCCN2CCN(Cc3ccc4c(c3)OCO4)CC2)cc1 [Example 58] | 48 | – | 100 | –
31 | CC(C)=CCC/C(C)=C/COc1ccc(C(=O)NCCN2CCN(Cc3ccccc3)CC2)cc1 [Example 56] | – | – | 99.4 | –
32 | CC(C)=CCC/C(C)=C/COc1ccc(C(=O)NCCN2CCOCC2)cc1OC/C=C(\C)CCC=C(C)C [Example 36] | 39 | – | – | –
33 | CCN1CCN(CCNC(=O)c2ccc(OC/C=C(\C)CCC=C(C)C)cc2)CC1 [Example 45] | 36 | 30 | 99 | –
34 | CC(C)=CCC/C(C)=C/COc1ccc(C(=O)NCCN2CCOCC2)c(OC/C=C(\C)CCC=C(C)C)c1 [Example 37] | 71 | – | – | –
35 | CC(C)=CCOc1ccc(C(=O)NCCN2CCCCC2)cc1OCC=C(C)C [Example 15] | 89 | 17 | – | –
